Measured values as given in ChEMBL document CHEMBL1201862, “PubChem BioAssay data set” (2004).
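Results reflect a 48-hour exposure of cells in 96-well plates to compound at five concentrations. GI50 = concentration required for 50% inhibition of growth.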 Active and inactive are the calls of the source. No stated cut-off is given here; in the data, active = GI50 up to about 1.1 µM and inactive = higher.

Assays:
Experiment in all cases: growth of human tumour cells (NCI), 48 h
HL-60 = system: HL-60
SN12C = system: SN12C
DU-145 = system: DU-145
A549 = system: A549
SK-MEL-5 = system: SK-MEL-5
SR = system: SR
MOLT-4 = system: MOLT-4
786-0 = system: 786-0
IGROV-1 = system: IGROV-1
PC-3 = system: PC-3
LOX IMVI = system: LOX IMVI
SK-MEL-2 = system: SK-MEL-2
OVCAR-3 = system: OVCAR-3
Hs-578T = system: Hs-578T
UACC-257 = system: UACC-257
SNB-75 = system: SNB-75
HCT-15 = system: HCT-15
T47D = system: T47D
SNB-19 = system: SNB-19
SK-OV-3 = system: SK-OV-3

Row | SMILES | GI50 (HL-60) | GI50 (SN12C) | GI50 (DU-145) | GI50 (A549) | GI50 (SK-MEL-5) | GI50 (SR) | GI50 (MOLT-4) | GI50 (786-0) | GI50 (IGROV-1) | GI50 (PC-3) | GI50 (LOX IMVI) | GI50 (SK-MEL-2) | GI50 (OVCAR-3) | GI50 (Hs-578T) | GI50 (UACC-257) | GI50 (SNB-75) | GI50 (HCT-15) | GI50 (T47D) | GI50 (SNB-19) | GI50 (SK-OV-3)
1 | Nc1nccc(NCC2(CO)CCC2)n1 | > 100 µM (inactive) | > 100 µM (inactive) | > 100 µM (inactive) | > 100 µM (inactive) | > 100 µM (inactive) | > 100 µM (inactive) | > 100 µM (inactive) | > 100 µM (inactive) | > 100 µM (inactive) | > 100 µM (inactive) | > 100 µM (inactive) | > 100 µM (inactive) | > 100 µM (inactive) | > 100 µM (inactive) | > 100 µM (inactive) | > 100 µM (inactive) | > 100 µM | > 100 µM (inactive) | – | –
2 | Cc1nc2ccccc2n1COC(Cn1ccnc1)c1ccc(Cl)cc1Cl (configuration not stated) | 30.5 µM (inactive) | > 100 µM (inactive) | > 100 µM (inactive) | 72.4 µM (inactive) | 22.4 µM (inactive) | 60.3 µM (inactive) | 30.1 µM (inactive) | 75.7 µM (inactive) | > 100 µM (inactive) | 23.4 µM (inactive) | 50.8 µM (inactive) | 64 µM (inactive) | 41.4 µM (inactive) | 81.7 µM (inactive) | 31 µM (inactive) | 53.6 µM (inactive) | 34.8 µM | 41.7 µM (inactive) | > 100 µM (inactive) | –
3 | COC(=O)c1cc(C)ccc1/C=C1\Cc2cccc(C)c2C1=O | 19.7 µM (inactive) | 4.9 µM (inactive) | 65.3 µM (inactive) | 28.2 µM (inactive) | 7.06 µM (inactive) | 24.7 µM (inactive) | 9.35 µM (inactive) | 50.4 µM (inactive) | 76.9 µM (inactive) | 8.04 µM (inactive) | 8.77 µM (inactive) | – | 19.5 µM (inactive) | 57.5 µM (inactive) | 22 µM (inactive) | 35.1 µM (inactive) | 18.8 µM | 6.68 µM (inactive) | > 100 µM (inactive) | –
4 | COc1ccc(/C=C/c2cc(O)cc(OC)c2)cc1 | 79.6 µM (inactive) | 65.2 µM (inactive) | > 100 µM (inactive) | 97.3 µM (inactive) | > 100 µM (inactive) | > 100 µM (inactive) | 56.5 µM (inactive) | > 100 µM (inactive) | > 100 µM (inactive) | 68.5 µM (inactive) | – | > 100 µM (inactive) | > 100 µM (inactive) | > 100 µM (inactive) | > 100 µM (inactive) | > 100 µM (inactive) | 0.855 µM | > 100 µM (inactive) | > 100 µM (inactive) | > 100 µM (inactive)
5 | COc1cc2c(cc1OCCCCOc1cc3c(cc1OC)C(=O)N1CCC[C@H]1C(=O)N3)N=C[C@@H]1CCCN1C2=O | 9.18 µM (inactive) | 9.75 µM (inactive) | 17.2 µM (inactive) | 18.3 µM (inactive) | 4 µM (inactive) | 2.17 µM (inactive) | 2.27 µM (inactive) | 13.2 µM (inactive) | 8.57 µM (inactive) | 6.05 µM (inactive) | 1.99 µM (inactive) | 5.57 µM (inactive) | 11.5 µM (inactive) | 10.3 µM (inactive) | 14.9 µM (inactive) | 4.12 µM (inactive) | 12.2 µM | 5.52 µM (inactive) | 8.18 µM (inactive) | –
6 | O=C(/C=C/c1ccc(/C=C/C(=O)c2ccc(O)cc2)cc1)c1ccc(O)cc1 | > 100 µM (inactive) | > 100 µM (inactive) | > 100 µM (inactive) | > 100 µM (inactive) | > 100 µM (inactive) | > 100 µM (inactive) | > 100 µM (inactive) | 74 µM (inactive) | > 10 µM (inactive) | > 100 µM (inactive) | 33.8 µM (inactive) | > 100 µM (inactive) | > 100 µM (inactive) | > 100 µM (inactive) | > 100 µM (inactive) | > 100 µM (inactive) | > 100 µM | > 100 µM (inactive) | > 100 µM (inactive) | –
